Paper PMC9556824, “Design, synthesis and computational study of new benzofuran hybrids as dual PI3K/VEGFR2 inhibitors targeting cancer” (Scientific Reports, 2022)
Like-named read-outs stand apart in the source and are kept apart here.

Columns and labels:
[1] = tested on: Hepatocellular carcinoma (HePG2); assay: Antitumor screening using MTT assay; assay type: cell-based, human; conditions: for IC50: mean ± SD, n = 3, read-out: In-vitro cytotoxicity IC50 (µM) HePG2; for viability at 1.56 µM / viability at 3.125 µM / viability at 6.25 µM / viability at 12.5 µM / viability at 25 µM / viability at 50 µM / viability at 100 µM: read-out: Average of Relative viability of cells (%)
From the text: (§2) Hepatocellular carcinoma (HePG2), mammary gland breast cancer (MCF-7), epithelioid carcinoma cervix cancer (Hela), and human prostate cancer were included on the panel (PC3). […] The cell lines were obtained from the American Type Culture Collection (ATCC) through VACSERA, a Cairo-based holding firm for biological goods and vaccines.
(§3) The panel consisted of hepatocellular carcinoma (HePG2), mammary gland breast cancer (MCF-7), epithelioid carcinoma cervix cancer (Hela) and human prostate cancer (PC3). Human lung fibroblast (WI38) was used to assay the cytotoxicity effect on normal cell. The cell lines were obtained from ATCC via Holding company for biological products and vaccines (VACSERA), Cairo, Egypt. The cytotoxic activity was defined as the concentration of the compound that causes 50% growth inhibition compared with the growth of untreated cells.

[2] = tested on: human lung fibroblast (WI38); assay: In vitro cytotoxicity against human normal cell line (MTT); assay type: cell-based; conditions: for Average of Relative viability of cells (%): WI38; for IC50: mean ± SD, n = 3
From the text: (§1) The anticancer agent's selectivity for cancer cells is a critical consideration for any researcher, as it can decrease the molecule's adverse effects on normal human cells.

[3] = tested on: HePG2, MCF-7, Hela, PC3 cell lines; assay: Antitumor screening using MTT assay, statements across several cell lines; assay type: cell-based, human; conditions: for anticancer activity towards the four / all assessed cell lines (grade): HePG2, MCF-7, Hela, PC3; for IC50: Homo sapiens, Hela and PC3, one range for 9 and 10 together, read-out: IC50 values range against Hela and PC3 cell line
From the text: as §2, §3

[4] = tested on: mammary gland breast cancer (MCF-7); assay: Antitumor screening using MTT assay; conditions: for Average of Relative viability of cells (%): MCF7; for viability at 1.56 µM / viability at 3.125 µM / viability at 6.25 µM / viability at 12.5 µM / viability at 25 µM / viability at 50 µM / viability at 100 µM: MCF7, read-out: Average of Relative viability of cells (%)
From the text: as §2, §3

[5] = tested on: epithelioid carcinoma cervix cancer (Hela); assay: Antitumor screening using MTT assay; conditions: for IC50: read-out: In-vitro cytotoxicity IC50 (µM) Hela; for viability at 1.56 µM / viability at 3.125 µM / viability at 6.25 µM / viability at 12.5 µM / viability at 25 µM / viability at 50 µM / viability at 100 µM: read-out: Average of Relative viability of cells (%)
From the text: as §2, §3

[6] = tested on: human prostate cancer (PC3); assay: Antitumor screening using MTT assay; conditions: for IC50: read-out: In-vitro cytotoxicity IC50 (µM) PC3; for viability at 1.56 µM / viability at 3.125 µM / viability at 6.25 µM / viability at 12.5 µM / viability at 25 µM / viability at 50 µM / viability at 100 µM: read-out: Average of Relative viability of cells (%)
From the text: as §2, §3

[7] = In vitro cytotoxicity against human normal cell line (MTT); assay type: cell-based; conditions: human, WI38, read-out: Average of Relative viability of cells (%); for viability at 1.56 µM: Conc. 1.56 µM; for viability at 3.125 µM: Conc. 3.125 µM; for viability at 6.25 µM: Conc. 6.25 µM; for viability at 12.5 µM: Conc. 12.5 µM; for viability at 25 µM: Conc. 25 µM; for viability at 50 µM: Conc. 50 µM; for viability at 100 µM: Conc. 100 µM
From the text: as §1

[8] = WI38 human lung fibroblast cells (normal cell line)
[9] = Homo sapiens, WI-38, human normal cell line WI38
[10] = Homo sapiens, MCF7, read-out: In-vitro cytotoxicity IC50 (µM) MCF-7
[11] = WI38 normal lung fibroblast cells

## 2-(benzofuran-2-yl)-1-(4-methylpiperazin-1-yl)ethanethione [Compound 3]
[1]; Conc. 1.56 µM
  Average of Relative viability of cells (%): 100%
[1]; Conc. 3.125 µM
  Average of Relative viability of cells (%): 100%
[1]; Conc. 6.25 µM
  Average of Relative viability of cells (%): 82.4%
[1]; Conc. 12.5 µM
  Average of Relative viability of cells (%): 76.1%
[1]; Conc. 25 µM
  Average of Relative viability of cells (%): 50.2%
[1]; Conc. 50 µM
  Average of Relative viability of cells (%): 42.8%
[1]; Conc. 100 µM
  Average of Relative viability of cells (%): 29.5%
[1]
  IC50: 34.8 ± 2.5 µM
[2]; Conc. 1.56 µM
  Average of Relative viability of cells (%): 100%
[2]; Conc. 3.125 µM
  Average of Relative viability of cells (%): 100%
[2]; Conc. 6.25 µM
  Average of Relative viability of cells (%): 97.0%
[2]; Conc. 12.5 µM
  Average of Relative viability of cells (%): 85.3%
[2]; Conc. 25 µM
  Average of Relative viability of cells (%): 71.8%
[2]; Conc. 50 µM
  Average of Relative viability of cells (%): 59.2%
[2]; Conc. 100 µM
  Average of Relative viability of cells (%): 47.4%
[2]; human normal cell line WI38
  IC50: 78.5 ± 3.8 µM
[3]
  anticancer activity towards the four / all assessed cell lines (grade): weak (51–100 (weak))
[4]; Conc. 1.56 µM
  Average of Relative viability of cells (%): 100%
[4]; Conc. 3.125 µM
  Average of Relative viability of cells (%): 100%
[4]; Conc. 6.25 µM
  Average of Relative viability of cells (%): 94.7%
[4]; Conc. 12.5 µM
  Average of Relative viability of cells (%): 72.4%
[4]; Conc. 25 µM
  Average of Relative viability of cells (%): 61.3%
[4]; Conc. 50 µM
  Average of Relative viability of cells (%): 47.6%
[4]; Conc. 100 µM
  Average of Relative viability of cells (%): 33.9%
[4]; read-out: In-vitro cytotoxicity IC50 (µM) MCF-7, MCF-7, mean ± SD, n = 3
  IC50: 45.1 ± 2.9 µM
[5]; Hela, Conc. 1.56 µM
  Average of Relative viability of cells (%): 100%
[5]; Hela, Conc. 3.125 µM
  Average of Relative viability of cells (%): 100%
[5]; Hela, Conc. 6.25 µM
  Average of Relative viability of cells (%): 97.1%
[5]; Hela, Conc. 12.5 µM
  Average of Relative viability of cells (%): 75.9%
[5]; Hela, Conc. 25 µM
  Average of Relative viability of cells (%): 64.8%
[5]; Hela, Conc. 50 µM
  Average of Relative viability of cells (%): 50.7%
[5]; Hela, Conc. 100 µM
  Average of Relative viability of cells (%): 36.1%
[5]; Hela, mean ± SD, n = 3
  IC50: 51.4 ± 3.1 µM
[6]; PC3, Conc. 1.56 µM
  Average of Relative viability of cells (%): 100%
[6]; PC3, Conc. 3.125 µM
  Average of Relative viability of cells (%): 100%
[6]; PC3, Conc. 6.25 µM
  Average of Relative viability of cells (%): 100%
[6]; PC3, Conc. 12.5 µM
  Average of Relative viability of cells (%): 92.8%
[6]; PC3, Conc. 25 µM
  Average of Relative viability of cells (%): 71.9%
[6]; PC3, Conc. 50 µM
  Average of Relative viability of cells (%): 59.5%
[6]; PC3, Conc. 100 µM
  Average of Relative viability of cells (%): 37.5%
[6]; PC3, mean ± SD, n = 3
  IC50: 65 ± 3.2 µM

## C/C(=N\NC(=O)Nc1ccc(Cl)cc1)c1cc2ccccc2o1 [Compound 7, (E)-2-[1-(benzofuran-2-yl)ethylidene]-N-(4-chlorophenyl)hydrazine-1-carboxamide]
[1]; Homo sapiens, Conc. 1.56 µM
  viability at 1.56 µM: 100%
[1]; Homo sapiens, Conc. 3.125 µM
  viability at 3.125 µM: 100%
[1]; Homo sapiens, Conc. 6.25 µM
  viability at 6.25 µM: 99.7%
[1]; Homo sapiens, Conc. 12.5 µM
  viability at 12.5 µM: 87.4%
[1]; Homo sapiens, Conc. 25 µM
  viability at 25 µM: 72.5%
[1]; Homo sapiens, Conc. 50 µM
  viability at 50 µM: 60.2%
[1]; Homo sapiens, Conc. 100 µM
  viability at 100 µM: 48.1%
[1]; Homo sapiens
  IC50: 81.6 ± 3.9 µM
[7]; [8]
  viability at 1.56 µM: 100%
  viability at 3.125 µM: 100%
  viability at 6.25 µM: 100%
  viability at 12.5 µM: 100%
  viability at 25 µM: 89.3%
  viability at 50 µM: 76.2%
  viability at 100 µM: 55.5%
[2]; [9]
  IC50: > 100 µM
[3]
  anticancer activity towards the four / all assessed cell lines (grade): weak (51–100 (weak))
other
  melting point: 235 to 237 °C
[4]; Homo sapiens
  viability at 1.56 µM: 100%
  viability at 3.125 µM: 100%
  viability at 6.25 µM: 97.6%
  viability at 12.5 µM: 88.9%
  viability at 25 µM: 70.2%
  viability at 50 µM: 58%
  viability at 100 µM: 47.8%
[4]; [10]
  IC50: 76.9 ± 3.8 µM
[5]; Homo sapiens, HeLa
  viability at 1.56 µM: 100%
  viability at 3.125 µM: 100%
  viability at 6.25 µM: 93.8%
  viability at 12.5 µM: 80.7%
  viability at 25 µM: 68.4%
  viability at 50 µM: 56.3%
  viability at 100 µM: 42.9%
  IC50: 66 ± 3.2 µM
[6]; Homo sapiens
  viability at 1.56 µM: 100%
  viability at 3.125 µM: 100%
  viability at 6.25 µM: 100%
  viability at 12.5 µM: 93.6%
  viability at 25 µM: 76.5%
  viability at 50 µM: 64.8%
  viability at 100 µM: 50.9%
  IC50: 93.9 ± 4.7 µM

## COc1ccc(/C=N/N=C(\C)c2cc3ccccc3o2)cc1OC [Compound 9, (E)-1-[1-(benzofuran-2-yl)ethylidene]-2-((E)-3,4-dimethoxybenzylidene)hydrazine]
[1]; Homo sapiens, Conc. 1.56 µM
  viability at 1.56 µM: 100%
[1]; Homo sapiens, Conc. 3.125 µM
  viability at 3.125 µM: 94.4%
[1]; Homo sapiens, Conc. 6.25 µM
  viability at 6.25 µM: 78.2%
[1]; Homo sapiens, Conc. 12.5 µM
  viability at 12.5 µM: 60.5%
[1]; Homo sapiens, Conc. 25 µM
  viability at 25 µM: 49.6%
[1]; Homo sapiens, Conc. 50 µM
  viability at 50 µM: 36.8%
[1]; Homo sapiens, Conc. 100 µM
  viability at 100 µM: 26.2%
[1]; Homo sapiens
  IC50: 26.4 ± 2.1 µM
[7]; [8]
  viability at 3.125 µM: 100%
[7]; [11]
  viability at 1.56 µM: 100%
  viability at 6.25 µM: 99.7%
  viability at 12.5 µM: 85.2%
  viability at 25 µM: 74.5%
  viability at 50 µM: 60.6%
  viability at 100 µM: 47.9%
[2]; [9]
  IC50: 82.3 ± 4.3 µM
[3]
  IC50: 13.8 to 32.1 µM
other
  melting point: 130 to 132 °C
[4]; Homo sapiens
  viability at 1.56 µM: 100%
  viability at 3.125 µM: 96%
  viability at 6.25 µM: 79.5%
  viability at 12.5 µM: 64.2%
  viability at 25 µM: 50.6%
  viability at 50 µM: 38.2%
  viability at 100 µM: 25.3%
[4]; [10]
  IC50: 28.1 ± 2.3 µM
[5]; Homo sapiens, HeLa
  viability at 1.56 µM: 100%
  viability at 3.125 µM: 92%
  viability at 6.25 µM: 73.2%
  viability at 12.5 µM: 50.4%
  viability at 25 µM: 37.1%
  viability at 50 µM: 28.2%
  viability at 100 µM: 20.3%
  IC50: 17 ± 1.4 µM
[6]; Homo sapiens
  viability at 1.56 µM: 100%
  viability at 3.125 µM: 96.1%
  viability at 6.25 µM: 75.8%
  viability at 12.5 µM: 60.2%
  viability at 25 µM: 52.6%
  viability at 50 µM: 44.8%
  viability at 100 µM: 31.2%
  IC50: 32.1 ± 2.2 µM

## COc1ccccc1/C=N/N=C(\C)c1cc2ccccc2o1 [Compound 10, (E)-1-[1-(benzofuran-2-yl)ethylidene]-2-((E)-2-methoxybenzylidene)hydrazine]
[1]; Homo sapiens, Conc. 1.56 µM
  viability at 1.56 µM: 100%
[1]; Homo sapiens, Conc. 3.125 µM
  viability at 3.125 µM: 100%
[1]; Homo sapiens, Conc. 6.25 µM
  viability at 6.25 µM: 91.9%
[1]; Homo sapiens, Conc. 12.5 µM
  viability at 12.5 µM: 72.7%
[1]; Homo sapiens, Conc. 25 µM
  viability at 25 µM: 63.1%
[1]; Homo sapiens, Conc. 50 µM
  viability at 50 µM: 50.2%
[1]; Homo sapiens, Conc. 100 µM
  viability at 100 µM: 38.1%
[1]; Homo sapiens
  IC50: 51 ± 3 µM
[7]; [8]
  viability at 3.125 µM: 100%
[7]; [11]
  viability at 1.56 µM: 100%
  viability at 6.25 µM: 100%
  viability at 12.5 µM: 93.6%
  viability at 25 µM: 71.7%
  viability at 50 µM: 54.8%
  viability at 100 µM: 43.3%
[2]; [9]
  IC50: 67.7 ± 3.4 µM
[3]
  IC50: 13.8 to 32.1 µM
other
  melting point: 154 to 156 °C
[4]; Homo sapiens
  viability at 1.56 µM: 100%
  viability at 3.125 µM: 100%
  viability at 6.25 µM: 94.7%
  viability at 12.5 µM: 79.3%
  viability at 25 µM: 65.2%
  viability at 50 µM: 58%
  viability at 100 µM: 40.4%
[4]; [10]
  IC50: 62.8 ± 3.3 µM
[5]; Homo sapiens, HeLa
  viability at 1.56 µM: 100%
  viability at 3.125 µM: 85.9%
  viability at 6.25 µM: 63.5%
  viability at 12.5 µM: 48.1%
  viability at 25 µM: 33.7%
  viability at 50 µM: 25.8%
  viability at 100 µM: 17%
  IC50: 13.8 ± 1 µM
[6]; Homo sapiens
  viability at 1.56 µM: 100%
  viability at 3.125 µM: 96.3%
  viability at 6.25 µM: 78.2%
  viability at 12.5 µM: 59.1%
  viability at 25 µM: 46.8%
  viability at 50 µM: 37%
  viability at 100 µM: 23.5%
  IC50: 24.8 ± 1.9 µM
